These results are taken from patent publication US9302996B2, “Continuous arycyclic compound” (MITSUBISHI TANABE PHARMA CORPORATION, priority 2010, dated 2016).

What all share (type): in vivo
One experiment has as its system ICR mice. Kind of experiment: Triglyceride (TG) in blood plasma increase-inhibiting action due to lipid administration. Conditions: Mus musculus; male ICR mice, 5 mg/kg oral, lipid (Intralipos 20%) after 30 minutes, plasma TG 2 hours after lipid; read-out: Inhibiting rate of TG-increase in blood plasma (5 mg/kg). The essentials:
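Male ICR mice (6–9 weeks), fasted overnight, dosed orally with compound in 0.2% CMC; oral lipid emulsion (10 mL/kg) 30 min later. Plasma TG from tail vein before and 2 h after lipid load; rise in TG expressed as percent inhibition versus vehicle group.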

A further experiment relates to C57BL/6J mice. The experiment is described as follows: Antifeeding activity (high fat diet intake up to 4 hours). The note with it: Mus musculus, male C57BL/6J mice, 5 mg/kg oral, food ingested up to 4 hours, read-out: Antifeeding rate (5 mg/kg).
For the next experiment, the system named is KK-Ay mice. Kind of experiment: Weight gain-inhibiting action, hypoglycemic effect, insulin in blood plasma lowering action in KK-Ay mice. The note with it: Mus musculus, 336 h, male KK-Ay mice, high fat diet, 30 mg/kg/day oral, 2 weeks. The protocol: To 8 weeks-old male KK-Ay mice were provided high fat diet (Oriental Yeast Co., Ltd, 60 cal % fat), and Test compound suspended in 0.2% carboxymethylcellulose solution was orally administered once a day. Oral administration was continued for 2 weeks, and a weight gain-inhibiting rate of the Test compound was calculated by using a weight gain amount of the solvent control group during the test period as 100%. After final administration, the mice were fasted overnight, and blood was collected from tail vein. Measurement of a blood-sugar level was carried out by using glucose Cα Test Wako (Wako Pure Chemical Industries, Ltd.), and measurement of insulin in blood plasma was carried out by using a mouse insulin measurement kit (Morinaga Institute of Biological Science, Inc.).

Setting [1] is: read-out: Hypoglycemic action (30 mg/kg/day).
Setting [2] is: read-out: Insulin in blood plasma-lowering action (30 mg/kg/day).
Setting [3] is: read-out: Weight gain-inhibiting action (30 mg/kg/day).

Read-outs that look alike come from different tables or passages of the source.

In the case of `CC(C)(COc1ncc(-c2ccc(-c3ncc(C(F)(F)F)[nH]3)c(F)c2)cc1F)C(=O)O` [Example 84], the inhibition in vivo at 5 mg/kg in the experiment on ICR mice amounted to 75%; in the experiment with C57BL/6J mice, 64%. For the same compound, the inhibition in vivo at 30 mg/kg with KK-Ay mice (setting [1]) is 65%; in the experiment on KK-Ay mice (setting [2]), 76%; in the experiment with KK-Ay mice (setting [3]), 48%.

As to `Cc1cc(OCC(C)(C)C(=O)O)ncc1-c1ccc(-c2ncc(C(F)(F)F)[nH]2)c(F)c1` [Example 62-3), 3-[(5-{3-fluoro-4-[5-(trifluoromethyl)-1H-imidazol-2-yl]phenyl}-4-methylpyridin-2-yl)oxy]-2,2-dimethylpropanoic acid], the values for the inhibition in vivo at 5 mg/kg in the experiment on ICR mice and in the experiment on C57BL/6J mice were 85% and 63%, respectively. For the same compound, the figures for the inhibition in vivo at 30 mg/kg with KK-Ay mice (setting [1]), in the experiment with KK-Ay mice (setting [2]) and in the experiment on KK-Ay mice (setting [3]) were 80%, 95% and 161%, respectively.

Take `Cc1cc(OCC(C)(C)C(=O)O)ncc1-c1ccc(-c2ncc(C3(C(F)(F)F)CC3)[nH]2)c(F)c1` [Example 54-4), 3-{[5-(3-fluoro-4-{5-[1-(trifluoromethyl)cyclopropyl]-1H-imidazol-2-yl]phenyl)-4-methylpyridin-2-yl}oxy}-2,2-dimethylpropanoic acid]: the values for the inhibition in vivo at 5 mg/kg in the experiment on ICR mice and in the experiment with C57BL/6J mice were 74% and 46%, respectively. Also, the values for the inhibition in vivo at 30 mg/kg with KK-Ay mice (setting [1]), in the experiment on KK-Ay mice (setting [2]) and with KK-Ay mice (setting [3]) were 74%, 93% and 113%, respectively.

For the compound `Cc1cc(OCC(C)(C)C(=O)O)ncc1-c1ccc(-c2ncc(C(F)(F)F)[nH]2)cc1` [Example 73], the inhibition in vivo at 5 mg/kg with ICR mice turned out to be 88%; in the experiment on C57BL/6J mice, 82%. Moreover, the inhibition in vivo at 30 mg/kg with KK-Ay mice (setting [1]) worked out at 40%; in the experiment with KK-Ay mice (setting [2]), 69%; in the experiment with KK-Ay mice (setting [3]), 62%.

Consider `CC(C)(COc1ccc(-c2ccc(-c3ncc(C(F)(F)F)[nH]3)nn2)cc1)C(=O)O` [Example 87-7), 2,2-dimethyl-3-(4-{6-[4-(trifluoromethyl)-1H-imidazol-2-yl]pyridazin-3-yl}phenoxy)-propanoic acid], for which the figures for the inhibition in vivo at 5 mg/kg in the experiment on ICR mice and with C57BL/6J mice were 57% and 59%, respectively. Moreover, the inhibition in vivo at 30 mg/kg is 35% in the experiment with KK-Ay mice (setting [1]), 19% in the experiment with KK-Ay mice (setting [2]) and 22% in the experiment with KK-Ay mice (setting [3]).

In the case of `Cc1cc(OCC(C)(C)C(=O)O)ncc1-c1ccc(-c2ncc(C(F)(F)F)[nH]2)c(C)c1` [Example 77], the inhibition in vivo at 5 mg/kg in the experiment on ICR mice came to 75%; with C57BL/6J mice, 65%. The inhibition in vivo at 30 mg/kg came out at 60% in the experiment with KK-Ay mice (setting [1]) and 65% in the experiment with KK-Ay mice (setting [2]).

For `Cc1nc(OCC(C)(C)C(=O)O)ccc1-c1ccc(-c2ncc(C(F)(F)F)[nH]2)cc1` [Example 74], the inhibition in vivo at 5 mg/kg was 50% in the experiment on ICR mice and 60% in the experiment with C57BL/6J mice. Besides, the inhibition in vivo at 30 mg/kg is 56% in the experiment with KK-Ay mice (setting [1]), 51% with KK-Ay mice (setting [2]) and 47% with KK-Ay mice (setting [3]).

As to `Cc1cc(OCC(C)(C)C(=O)O)ncc1-c1cnc(-c2ncc(C(F)(F)F)[nH]2)c(F)c1` [Example 107], the inhibition in vivo at 5 mg/kg is 62% in the experiment with ICR mice and 57% in the experiment on C57BL/6J mice. Moreover, the figures for the inhibition in vivo at 30 mg/kg in the experiment with KK-Ay mice (setting [1]), in the experiment with KK-Ay mice (setting [2]) and in the experiment on KK-Ay mice (setting [3]) were 57%, 58% and 48%, respectively.

For the compound `CCC(CC)(COc1ccc(-c2ccc(-c3ncc(C(F)(F)F)[nH]3)nc2)cn1)C(=O)O` [Example 23], the values for the inhibition in vivo at 5 mg/kg with ICR mice and with C57BL/6J mice were 85% and 63%, respectively. Further, the inhibition in vivo at 30 mg/kg is -13% in the experiment with KK-Ay mice (setting [1]), 14% in the experiment with KK-Ay mice (setting [2]) and 39% with KK-Ay mice (setting [3]).

For `Cc1cc(OCC(C)(C)C(=O)O)ncc1-c1ccc(-c2ncc(C3(C(F)(F)F)CC3)[nH]2)cc1` [Example 39], the inhibition in vivo at 5 mg/kg turned out to be 54% with ICR mice and 76% with C57BL/6J mice. Also, the inhibition in vivo at 30 mg/kg in the experiment on KK-Ay mice (setting [1]) was 44%; in the experiment on KK-Ay mice (setting [2]), 50%; with KK-Ay mice (setting [3]) it was 38%.

Consider `CC(C)Cc1cnc(-c2ccc(-c3ccc(OCC(C)(C)C(=O)O)cc3)nc2)[nH]1` [Example 26], for which the inhibition in vivo at 5 mg/kg stood at 67% with ICR mice and 79% in the experiment on C57BL/6J mice. In addition, the inhibition in vivo at 30 mg/kg turned out to be 40% with KK-Ay mice (setting [1]), 27% in the experiment with KK-Ay mice (setting [2]) and 44% in the experiment on KK-Ay mice (setting [3]).

Take `CC(C)(COc1ccc(-c2ccc(-c3ncc(C4(C(F)(F)F)CC4)[nH]3)c(F)c2)cn1)C(=O)O` [Example 45]: the inhibition in vivo at 5 mg/kg was determined as 71% in the experiment on ICR mice and 72% in the experiment with C57BL/6J mice. In addition, the inhibition in vivo at 30 mg/kg was determined as 59% with KK-Ay mice (setting [1]), 56% with KK-Ay mice (setting [2]) and 42% in the experiment with KK-Ay mice (setting [3]).

Regarding `Cc1cc(OCC(C)(C)C(=O)O)ncc1-c1ccc(-c2ncc(CC(C)C)[nH]2)nc1` [Example 117], the inhibition in vivo at 5 mg/kg in the experiment on ICR mice stood at 57%; in the experiment on C57BL/6J mice it was 55%. Moreover, the inhibition in vivo at 30 mg/kg stood at 36% with KK-Ay mice (setting [1]), 35% in the experiment on KK-Ay mice (setting [2]) and 31% with KK-Ay mice (setting [3]).

Turning to `CC(C)(COc1ccc(-c2ccc(-c3ncc(C(F)(F)F)[nH]3)c(F)c2)cn1)C(=O)O` [Example 76], the results for the inhibition in vivo at 5 mg/kg in the experiment on ICR mice and in the experiment with C57BL/6J mice were 78% and 61%, respectively. Besides, the inhibition in vivo at 30 mg/kg with KK-Ay mice (setting [1]) is 65%; in the experiment with KK-Ay mice (setting [2]), 81%; in the experiment with KK-Ay mice (setting [3]) it was 69%.

`CC(C)(COc1cnc(-c2ccc(-c3ncc(C(F)(F)F)[nH]3)nc2)cn1)C(=O)O` [Example 92]: the inhibition in vivo at 5 mg/kg was 74% in the experiment on ICR mice and 66% with C57BL/6J mice. Besides, the values for the inhibition in vivo at 30 mg/kg with KK-Ay mice (setting [1]), in the experiment on KK-Ay mice (setting [2]) and in the experiment with KK-Ay mice (setting [3]) were 63%, 58% and 60%, respectively.

For `CCC(CC)(COc1ccc(-c2ccc(-c3ncc(C(F)(F)F)[nH]3)cn2)cn1)C(=O)O` [Example 22], the inhibition in vivo at 5 mg/kg with ICR mice is 76%; with C57BL/6J mice it was 69%. The inhibition in vivo at 30 mg/kg in the experiment on KK-Ay mice (setting [1]) was 40%; in the experiment on KK-Ay mice (setting [2]) it was 47%; in the experiment on KK-Ay mice (setting [3]), 30%.

As to `Cc1cc(OCC2(C(=O)O)CCC2)ccc1-c1ccc(-c2ncc(C(F)(F)F)[nH]2)cn1` [Example 70], the inhibition in vivo at 5 mg/kg stood at 67% in the experiment with ICR mice and 59% with C57BL/6J mice. Also, the inhibition in vivo at 30 mg/kg in the experiment with KK-Ay mice (setting [1]) is 52%; in the experiment with KK-Ay mice (setting [2]) it was 27%; in the experiment on KK-Ay mice (setting [3]), 45%.

`CC(C)(COc1ccc(-c2ccc(-c3ncc(C(F)(F)F)[nH]3)cc2)cn1)C(=O)O` [Example 3-3), 2,2-dimethyl-3-[(5-{4-[5-(trifluoromethyl)-1H-imidazol-2-yl]phenyl}pyridin-2-yl)oxy]propanoic acid]: the inhibition in vivo at 5 mg/kg with ICR mice was found to be 78%; in the experiment on C57BL/6J mice, 76%. Also, the inhibition in vivo at 30 mg/kg came out at 41% in the experiment on KK-Ay mice (setting [1]), 51% in the experiment with KK-Ay mice (setting [2]) and 52% in the experiment on KK-Ay mice (setting [3]).

On to `CC(C)(COc1ccc(-c2ccc(-c3ncc(C(F)(F)F)[nH]3)nc2)cn1)C(=O)O` [Example 66], for which the inhibition in vivo at 5 mg/kg was 83% in the experiment on ICR mice and 76% in the experiment on C57BL/6J mice. The values for the inhibition in vivo at 30 mg/kg in the experiment with KK-Ay mice (setting [1]), with KK-Ay mice (setting [2]) and in the experiment on KK-Ay mice (setting [3]) were 10%, 38% and 46%, respectively.

For `Cc1cc(OCC(C)(C)C(=O)O)ncc1-c1ccc(-c2ncc(C(F)(F)F)[nH]2)c(Cl)c1` [Example 63-3), 3-[(5-{3-chloro-4-[5-(trifluoromethyl)-1H-imidazol-2-yl]phenyl}-4-methylpyridin-2-yl)oxy]-2,2-dimethylpropanoic acid], the inhibition in vivo at 5 mg/kg in the experiment with ICR mice is 60%; in the experiment with C57BL/6J mice it was 83%. In addition, the inhibition in vivo at 30 mg/kg with KK-Ay mice (setting [1]) was determined as 77%; in the experiment with KK-Ay mice (setting [2]) it was 90%; in the experiment on KK-Ay mice (setting [3]) it was 115%.

On to `Cc1cc(OCC(C)(C)C(=O)O)ncc1-c1ccc(-c2ncc(C3(C(F)(F)F)CC3)[nH]2)nc1` [Example 36], for which the inhibition in vivo at 5 mg/kg in the experiment on ICR mice came to 69%; with C57BL/6J mice it was 63%. Moreover, the inhibition in vivo at 30 mg/kg in the experiment with KK-Ay mice (setting [1]) came to 23%; in the experiment with KK-Ay mice (setting [2]) it was 19%; in the experiment on KK-Ay mice (setting [3]) it was 59%.

`CC(C)(COc1ccc(-c2cnc(-c3ncc(C(F)(F)F)[nH]3)cn2)cc1)C(=O)O` [Example 7-7), 2,2-dimethyl-3-(4-{5-[5-(trifluoromethyl)-1H-imidazol-2-yl]pyrazin-2-yl}phenoxy)-propanoic acid]: the values for the inhibition in vivo at 5 mg/kg in the experiment with ICR mice and with C57BL/6J mice were 71% and 75%, respectively. For the same compound, the figures for the inhibition in vivo at 30 mg/kg in the experiment on KK-Ay mice (setting [1]), in the experiment with KK-Ay mice (setting [2]) and in the experiment with KK-Ay mice (setting [3]) were 62%, 58% and 66%, respectively.
